# In patent US11178873B2, “Cyclic N-carboxamide compounds useful as herbicides” (FMC CORPORATION, priority 2015, dated 2021):
# Experiments:
# Assay type in all cases: in vivo
# [1] = tested on: barnyardgrass (Echinochloa crus-galli); assay: Test A postemergence, barnyardgrass; conditions: 0 to 100 scale, 0 no effect, 100 complete control
# From the text: (§1) Seeds of plant species selected from barnyardgrass (Echinochloa crus-galli), crabgrass, large (large crabgrass, Digitaria sanguinalis), kochia (Kochia scoparia), ragweed (common ragweed, Ambrosia elatior), morningglory (Ipomoea spp.), velvetleaf (Abutilon theophrasti), ryegrass, Italian (Italian ryegrass, Lolium multiflorum), foxtail, giant (giant foxtail, Setaria faberii), wheat (Triticum aestivum), corn (Zea mays), and pigweed (Amaranthus retroflexus), were planted into a blend of loam soil and sand and treated preemergence with a directed soil spray using test chemicals formulated in a non-phytotoxic solvent mixture which included a surfactant. At the same time, plants selected from these crop and weed species and also blackgrass (Alopecurus myosuroides), and galium (catchweed bedstraw, Galium aparine), were planted in pots containing the same blend of loam soil and sand and treated with postemergence applications of test chemicals formulated in the same manner. Plants ranged in height from 2 to 10 cm and were in the one- to two-leaf stage for the postemergence treatment. Treated plants and untreated controls were maintained in a greenhouse for approximately 10 d, after which time all treated plants were compared to untreated controls and visually evaluated for injury. Plant response ratings, summarized in Table A, are based on a 0 to 100 scale where 0 is no effect and 100 is complete control. A dash (-) response means no test result.
# [2] = tested on: pigweed (Amaranthus retroflexus); assay: Test A postemergence, pigweed; conditions: 0 to 100 scale, 0 no effect, 100 complete control
# From the text: as §1
# [3] = tested on: pigweed (Amaranthus retroflexus); assay: Test A preemergence, pigweed; conditions: 0 to 100 scale, 0 no effect, 100 complete control
# From the text: as §1
# [4] = tested on: ragweed (common ragweed, Ambrosia elatior); assay: Test A preemergence, ragweed; conditions: 0 to 100 scale, 0 no effect, 100 complete control
# From the text: as §1
# [5] = tested on: barnyardgrass (Echinochloa crus-galli); assay: Test B flooded paddy test, barnyardgrass; conditions: Flood, scale 0 to 100 (0 no effect, 100 complete control), 13 to 15 d
# Description: (§2) Plant species in the flooded paddy test selected from rice (Oryza sativa), sedge, umbrella (small-flower umbrella sedge, Cyperus difformis), ducksalad (Heteranthera limosa), and barnyardgrass (Echinochloa crus-galli) were grown to the 2-leaf stage for testing. At time of treatment, test pots were flooded to 3 cm above the soil surface, treated by application of test compounds directly to the paddy water, and then maintained at that water depth for the duration of the test. Treated plants and controls were maintained in a greenhouse for 13 to 15 d, after which time all species were compared to controls and visually evaluated. Plant response ratings, summarized in Table B, are based on a scale of 0 to 100 where 0 is no effect and 100 is complete control. A dash (-) response means no test result.
# [6] = tested on: foxtail, giant (giant foxtail, Setaria faberii); assay: Test A preemergence, foxtail, giant; conditions: 0 to 100 scale, 0 no effect, 100 complete control
# From the text: as §1
# [7] = tested on: blackgrass (Alopecurus myosuroides); assay: Test A postemergence, blackgrass; conditions: 0 to 100 scale, 0 no effect, 100 complete control
# From the text: as §1
# [8] = tested on: galium (catchweed bedstraw, Galium aparine); assay: Test A postemergence, galium; conditions: 0 to 100 scale, 0 no effect, 100 complete control
# From the text: as §1
# [9] = tested on: ducksalad (Heteranthera limosa); assay: Test B flooded paddy test, ducksalad; conditions: Flood, scale 0 to 100 (0 no effect, 100 complete control), 13 to 15 d
# Description: as §2
# [10] = tested on: sedge, umbrella (small-flower umbrella sedge, Cyperus difformis); assay: Test B flooded paddy test, sedge, umbrella; conditions: Flood, scale 0 to 100 (0 no effect, 100 complete control), 13 to 15 d
# Description: as §2
# [11] = tested on: kochia (Kochia scoparia); assay: Test A postemergence, kochia; conditions: 0 to 100 scale, 0 no effect, 100 complete control
# From the text: as §1
# [12] = tested on: rice (Oryza sativa); assay: Test B flooded paddy test, rice; conditions: Flood, scale 0 to 100 (0 no effect, 100 complete control), 13 to 15 d
# Description: as §2
# [13] = tested on: wheat (Triticum aestivum); assay: Test A postemergence, wheat; conditions: 0 to 100 scale, 0 no effect, 100 complete control
# From the text: as §1
# [14] = tested on: ryegrass, Italian (Italian ryegrass, Lolium multiflorum); assay: Test A postemergence, ryegrass, Italian; conditions: 0 to 100 scale, 0 no effect, 100 complete control
# From the text: as §1
# [15] = tested on: kochia (Kochia scoparia); assay: Test A preemergence, kochia; conditions: 0 to 100 scale, 0 no effect, 100 complete control
# From the text: as §1
# [16] = tested on: corn (Zea mays); assay: Test A postemergence, corn; conditions: 0 to 100 scale, 0 no effect, 100 complete control
# From the text: as §1
# [17] = tested on: ryegrass, Italian (Italian ryegrass, Lolium multiflorum); assay: Test A preemergence, ryegrass, Italian; conditions: 0 to 100 scale, 0 no effect, 100 complete control
# From the text: as §1
# [18] = tested on: ragweed (common ragweed, Ambrosia elatior); assay: Test A postemergence, ragweed; conditions: 0 to 100 scale, 0 no effect, 100 complete control
# From the text: as §1
# [19] = tested on: foxtail, giant (giant foxtail, Setaria faberii); assay: Test A postemergence, foxtail, giant; conditions: 0 to 100 scale, 0 no effect, 100 complete control
# From the text: as §1
# [20] = tested on: barnyardgrass (Echinochloa crus-galli); assay: Test A preemergence, barnyardgrass; conditions: 0 to 100 scale, 0 no effect, 100 complete control
# From the text: as §1
structure (smiles),measurement,setting,value
"O=C1NCC(c2ccc(F)c(F)c2)N1C(=O)Nc1cccc(F)c1F (stereo not shown) [Compound 11, N-(2,3-difluorophenyl)-5-(3,4-difluorophenyl)-2-oxo-1-imidazolidinecarboxamide]","Plant response rating, Barnyardgrass",[1]; 125 g ai/ha,0
same,"Plant response rating, Barnyardgrass",[1]; 500 g ai/ha,20
same,"Plant response rating, Pigweed",[2]; 125 g ai/ha,0
same,"Plant response rating, Pigweed",[2]; 500 g ai/ha,0
same,"Plant response rating, Pigweed",[3]; 125 g ai/ha,0
same,"Plant response rating, Pigweed",[3]; 500 g ai/ha,0
same,"Plant response rating, Ragweed",[4]; 125 g ai/ha,0
same,"Plant response rating, Ragweed",[4]; 500 g ai/ha,0
same,"Plant response rating, Barnyardgrass",[5]; 500 g ai/ha,0
same,"Plant response rating, Foxtail, Giant",[6]; 125 g ai/ha,0
same,"Plant response rating, Foxtail, Giant",[6]; 500 g ai/ha,80
same,"Plant response rating, Blackgrass",[7]; 125 g ai/ha,0
same,"Plant response rating, Blackgrass",[7]; 500 g ai/ha,0
same,"Plant response rating, Galium",[8]; 125 g ai/ha,0
same,"Plant response rating, Galium",[8]; 500 g ai/ha,0
same,"Plant response rating, Ducksalad",[9]; 500 g ai/ha,60
same,"Plant response rating, Sedge, Umbrella",[10]; 500 g ai/ha,0
same,"Plant response rating, Kochia",[11]; 125 g ai/ha,0
same,"Plant response rating, Kochia",[11]; 500 g ai/ha,0
same,"Plant response rating, Rice",[12]; 500 g ai/ha,0
same,"Plant response rating, Wheat",[13]; 125 g ai/ha,0
same,"Plant response rating, Wheat",[13]; 500 g ai/ha,0
same,"Plant response rating, Ryegrass, Italian",[14]; 125 g ai/ha,0
same,"Plant response rating, Ryegrass, Italian",[14]; 500 g ai/ha,0
same,"Plant response rating, Kochia",[15]; 125 g ai/ha,0
same,"Plant response rating, Kochia",[15]; 500 g ai/ha,30
same,"Plant response rating, Corn",[16]; 125 g ai/ha,0
same,"Plant response rating, Corn",[16]; 500 g ai/ha,0
same,"Plant response rating, Ryegrass, Italian",[17]; 125 g ai/ha,0
same,"Plant response rating, Ryegrass, Italian",[17]; 500 g ai/ha,30
same,"Plant response rating, Ragweed",[18]; 125 g ai/ha,0
same,"Plant response rating, Ragweed",[18]; 500 g ai/ha,0
same,"Plant response rating, Foxtail, Giant",[19]; 125 g ai/ha,0
same,"Plant response rating, Foxtail, Giant",[19]; 500 g ai/ha,30
same,"Plant response rating, Barnyardgrass",[20]; 125 g ai/ha,0
same,"Plant response rating, Barnyardgrass",[20]; 500 g ai/ha,40
Cc1ccc(C2CCC(=O)N2C(=O)Nc2ccccc2C(F)(F)F)cc1 (stereo not shown) [Compound 20],"Plant response rating, Barnyardgrass",[1]; 1000 g ai/ha,0
same,"Plant response rating, Pigweed",[2]; 1000 g ai/ha,0
same,"Plant response rating, Pigweed",[3]; 1000 g ai/ha,0
same,"Plant response rating, Ragweed",[4]; 1000 g ai/ha,0
same,"Plant response rating, Foxtail, Giant",[6]; 1000 g ai/ha,20
same,"Plant response rating, Blackgrass",[7]; 1000 g ai/ha,0
same,"Plant response rating, Galium",[8]; 1000 g ai/ha,0
same,"Plant response rating, Kochia",[11]; 1000 g ai/ha,0
same,"Plant response rating, Wheat",[13]; 1000 g ai/ha,0
same,"Plant response rating, Ryegrass, Italian",[14]; 1000 g ai/ha,0
same,"Plant response rating, Kochia",[15]; 1000 g ai/ha,0
same,"Plant response rating, Corn",[16]; 1000 g ai/ha,0
same,"Plant response rating, Ryegrass, Italian",[17]; 1000 g ai/ha,0
same,"Plant response rating, Ragweed",[18]; 1000 g ai/ha,0
same,"Plant response rating, Foxtail, Giant",[19]; 1000 g ai/ha,0
same,"Plant response rating, Barnyardgrass",[20]; 1000 g ai/ha,0
O=C1NCC(c2ccccc2)N1C(=O)Nc1ccccc1F (stereo not shown) [Compound 5],"Plant response rating, Barnyardgrass",[1]; 125 g ai/ha,0
same,"Plant response rating, Barnyardgrass",[1]; 500 g ai/ha,0
same,"Plant response rating, Pigweed",[2]; 125 g ai/ha,0
same,"Plant response rating, Pigweed",[2]; 500 g ai/ha,0
same,"Plant response rating, Pigweed",[3]; 125 g ai/ha,0
same,"Plant response rating, Pigweed",[3]; 500 g ai/ha,0
same,"Plant response rating, Ragweed",[4]; 125 g ai/ha,0
same,"Plant response rating, Ragweed",[4]; 500 g ai/ha,0
same,"Plant response rating, Barnyardgrass",[5]; 1000 g ai/ha,0
same,"Plant response rating, Foxtail, Giant",[6]; 125 g ai/ha,0
same,"Plant response rating, Foxtail, Giant",[6]; 500 g ai/ha,0
same,"Plant response rating, Blackgrass",[7]; 125 g ai/ha,0
same,"Plant response rating, Blackgrass",[7]; 500 g ai/ha,0
same,"Plant response rating, Galium",[8]; 125 g ai/ha,0
same,"Plant response rating, Galium",[8]; 500 g ai/ha,0
same,"Plant response rating, Ducksalad",[9]; 1000 g ai/ha,90
same,"Plant response rating, Sedge, Umbrella",[10]; 1000 g ai/ha,0
same,"Plant response rating, Kochia",[11]; 125 g ai/ha,0
same,"Plant response rating, Kochia",[11]; 500 g ai/ha,0
same,"Plant response rating, Rice",[12]; 1000 g ai/ha,0
same,"Plant response rating, Wheat",[13]; 125 g ai/ha,0
same,"Plant response rating, Wheat",[13]; 500 g ai/ha,0
same,"Plant response rating, Ryegrass, Italian",[14]; 125 g ai/ha,0
same,"Plant response rating, Ryegrass, Italian",[14]; 500 g ai/ha,0
same,"Plant response rating, Kochia",[15]; 125 g ai/ha,0
same,"Plant response rating, Kochia",[15]; 500 g ai/ha,0
same,"Plant response rating, Corn",[16]; 125 g ai/ha,0
same,"Plant response rating, Corn",[16]; 500 g ai/ha,0
same,"Plant response rating, Ryegrass, Italian",[17]; 125 g ai/ha,0
same,"Plant response rating, Ryegrass, Italian",[17]; 500 g ai/ha,0
same,"Plant response rating, Ragweed",[18]; 125 g ai/ha,0
same,"Plant response rating, Ragweed",[18]; 500 g ai/ha,0
same,"Plant response rating, Foxtail, Giant",[19]; 125 g ai/ha,0
same,"Plant response rating, Foxtail, Giant",[19]; 500 g ai/ha,0
same,"Plant response rating, Barnyardgrass",[20]; 125 g ai/ha,0
same,"Plant response rating, Barnyardgrass",[20]; 500 g ai/ha,0
